{
  "source": "patent US6681132B1",
  "about": "“Sodium magnetic reasonance imaging used in diagnosing tumors and assessing response to treatment” (The Trustees of Columbia University in the City of New York, priority 1999, dated 2004)",
  "origin": "cited, not measured here",
  "tested_on": "L cells",
  "details": "K+ loss exceeds Na+ gain; cited from earlier work",
  "data": [
    {"smiles": "O=C(O)c1nn(Cc2ccc(Cl)cc2Cl)c2ccccc12", "note": "[lonidamine]", "values": [
      {"measurement": "effect on total cellular monovalent cations", "result": "net reduction"}
    ]}
  ]
}
